Data as given in patent publication US4097599A, “Triazoles” (Commonwealth Scientific and Industrial Research Organization, priority 1973, dated 1978).
Converted amounts (≈) assume the structure as drawn. Like-named read-outs stand apart in the source and are kept apart here.

What was measured:
[1] = tested on: rat liver monoamine oxidase; assay: Inhibition of rat liver monoamine oxidase; format: biochemical; conditions: for Relative inhibition of rat liver monoamine oxidase: relative to I50 value of BTS 27271 = 100
Text: (§1) Other biochemical tests carried out with the compounds were the measurement of their effects on the uncoupling of oxidative phosphorylation and the inhibition of energy transfer in the mitochondrial respiration sequences. In the light of a known report on the action of certain acaricides as monoamine oxidase (MAO) inhibitors, the new structures were also examined in this test, and their activity compared to the reported MAO inhibition shown by the potent acaricide N-(2,4-dimethylphenyl)-N'-methyl formamidine (BTS 27271).
Purified intact rat liver mitochondria were disrupted by treating with triton X-100 (1% w/v) for 20 mins. at 0°-4°. The MAO activity was measured spectrophotometrically at 360 nm as described by Weissbach, H. et al. ^10. The activity of BTS 27271 was determined by this method and the enzyme inhibition for other compounds was expressed relative to its I50 value.

[2] = tested on: yeast mitochondria; assay: Oxidative phosphorylation in yeast mitochondria (uncoupling, State 3 respiration); format: biochemical, yeast (Saccharomyces cerevisiae)
Text: as §1
Yeast mitochondria were prepared as described by Watson, K. et al.^4. The effects of anti-metabolites on oxidative phosphorylation were determined in a polarograph cell at 30° in the medium described by Haslam, J. M. et al.^5. Substrates were either succinate (4.0 mM) or ethanol (0.3M). Other additions, where indicated, were Sigma ADP and 2:4-dinitrophenol (DNP).
(§2) State 3 and state 4 respiration rates were determined by the method of Chance, B. et al.^9. Percentage uncoupling in the presence of antimetabolities was calculated from the equation [formula] Percentage inhibition of coupled respiration was calculated from the equation [formula] Relative uncoupling and n-octylguanidine like effects are compared as the concentrations required to give 50% effects (I50).

[3] = tested on: Boophilus microplus larvae; assay: Acaricide testing: toxicity to Boophilus microplus larvae; format: in vivo, Boophilus microplus (cattle tick); conditions: 7-14 day old larvae, packets, 24 hours
Experimental: (§3) The new compounds were examined in several biological tests. The acaricidal activity was measured against the larvae of the Australian cattle tick (Boophilus microplus). The specificity of interference of the designed compounds with mitochondrial oxidative processes was examined by the differential inhibition of growth of Saccharomyces cerevisiae with ethanol or glucose as substrates.
The determinations of mortalities were carried out in packets on 7-14 day old larvae of the cattle tick Boophilus microplus using the method described by Stone^1. Mortalities were counted 24 hours after the application of the compounds. The activities of DDT and BTS 27271 were also determined.

[4] = tested on: Saccharomyces cerevisiae; assay: Inhibition of the growth of Saccharomyces cerevisiae on two substrates; format: cell-based, Saccharomyces cerevisiae strain L410; conditions: 24 hours
Experimental: as §3
Saccharamyces cerevisiae, strain L410, was grown aerobically at 28° in a salts medium containing 1% Difco yeast extract and 0.5% bacteriological peptone as described by Wallace, P. G. et al.^2 with either ethanol (1% w/v) or glucose (5% w/v) as carbon and energy sources. Cells were innoculated at a concentration of 10 μg of dry weight per ml and grown for 24 hours. Growth was measured as described by Clark-Walker et al.^3, and compared with control incubations.

[5] = tested on: oxidative phosphorylation in rat liver mitochondria; assay: Oxidative phosphorylation in rat liver mitochondria (uncoupling, State 3 respiration); format: biochemical; conditions: for EC50: concentration for 50% effect, read-out: Uncoupling activity of oxidative phosphorylation in rat liver mitochondria, I50
Text: as §1
Rat liver mitochondria were prepared by the method described by Hogeboon^6 in a medium containing 0.25 M sucrose; 10 mM tris-HCl (pH 7.40); 0.5 mM EDTA and finally suspended in the same medium plus bovine-serum albumin (2 mg/ml). Oxidative phosphorylation was measured polarographically at 30°, as described by Estabrook, R. W. et al.^7. The incubation medium contained 0.25 M sucrose; 10 mM tris-HCl (pH 7.4); 5 mM K2 HPO4 (pH 7.4); 0.5 mM EDTA and bovine-serum albumin (2 mg/ml). DNP was added and control tests were carried out using n-octyl guanidine ^8 and either pyruvate or succinate as substrates.
as §2

[6] = tested on: Tetranychus urticae; assay: Activity against the two-spotted spider mite on discs of dwarf bean leaf; format: in vivo; conditions: read-out: LC50, Tetranychus urticae
Experimental: Compounds of the invention were tested for their activity against the two-spotted spider mite, Tetranychus urticae. In this test, discs of dwarf bean leaf were treated with varying known amounts of the test compound. On each disc, 15 mites were placed and the sample kept under cover. Mortalities were determined after 24 hours and compared with […] controls.

[7] = ethanol substrate, read-out: Inhibition of the growth of Saccharomyces cerevisiae, ethanol, I50
[8] = glucose substrate, read-out: Inhibition of the growth of Saccharomyces cerevisiae, glucose, I50

Row | Relative inhibition of rat liver monoamine oxidase [1] | IC50 [4, 7] | SMILES | LC50, toxicity to Boophilus microplus larvae [3] | also measured
1 | 5 | – | COc1ccccc1-n1cnnc1C(F)(F)F [Example 6, 4-(2-methoxyphenyl)-3-trifluoromethyl-1,2,4-triazole] | 0.38% | –
2 | 2.5 | – | CCOc1ccc(-n2cnnc2C(F)(F)F)cc1 [Example 7, 4-(4-ethoxyphenyl)-3trifluoromethyl-1,2,4-triazole] | 0.61% | LC50 ([6]; discs of dwarf bean leaf, 24 hours): 1400 mg/L (≈ 5.44 mM)
3 | 1 | – | CC(C)(C)c1ccc(-n2cnnc2C(F)(F)F)cc1 [Example 8, 4-(4-t-butylphenyl)-3-trifluoromethyl-1,2,4-triazole] | 1.8% | –
4 | 2 | – | Cc1nnc(C(F)(F)F)n1-c1ccccc1 [Example 11, 3-Methyl-4-phenyl-5-trifluoromethyl-1,2,4-triazole] | 0.50% | –
5 | 200 | – | FC(F)(F)c1nnc(-c2ccc(Cl)cc2)n1-c1ccc(Cl)cc1 [Example 12, 3,4-bis(4-chlorophenyl)-5-trifluoromethyl-1,2,4-triazole] | > 1% | Inhibition of rat liver monoamine oxidase (result in words) [1]: potent inhibition
6 | 400 | – | FC(F)(F)c1ncn(-c2ccccc2)n1 [Example 13, 1-phenyl-3-trifluoromethyl-1,2,4-triazole] | 2.75% | Inhibition of rat liver monoamine oxidase (result in words) [1]: potent inhibition; Inhibition of rat liver monoamine oxidase compared with BTS 27271 ([1]; times that determined for BTS 27271 in a similar test): four times
7 | 0 | – | FC(F)(F)c1nc[nH]n1 [Example 16, 3-trifluoromethyl-1,2,4-triazole] | 0.50% | –

The remaining lines, values behind:

Row | SMILES | Relative inhibition of rat liver monoamine oxidase [1] | IC50 [4, 7] | LC50, toxicity to Boophilus microplus larvae [3] | also measured
8 | FC(F)(F)c1n[nH]c(-c2ccccc2)n1 [20(c), 3(5)-phenyl-5(3)-trifluoromethyl-1,2,4-triazole] | 0 | 300 µM | 0.60% | Uncoupling activity in yeast mitochondrial preparations (result in words) [2]: high uncoupling activity; IC50 [4, 8]: 1000 µM; EC50 [5]: 80 µM; Uncoupling activity in rat liver mitochondrial preparations (result in words) [5]: high uncoupling activity
9 | FC(F)(F)c1n[nH]c(-c2ccc(Cl)cc2)n1 [20(d), 3(5)-(4-chlorophenyl)-5(3)-trifluoromethyl-1,2,4-triazole] | 27 | 30 µM | 0.45% | Inhibition of rat liver monoamine oxidase (result in words) [1]: potent inhibition; Uncoupling activity in yeast mitochondrial preparations (result in words) [2]: high uncoupling activity; IC50 [4, 8]: 300 µM; EC50 [5]: 12 µM; Uncoupling activity in rat liver mitochondrial preparations (result in words) [5]: high uncoupling activity
10 | FC(F)(F)c1n[nH]c(-c2ccc(Cl)c(Cl)c2)n1 [20(e), 3(5)-(3,4-dichlorophenyl)-5(3)-trifluoromethyl-1,2,4-triazole] | 42 | 10 µM | 0.38% | Inhibition of rat liver monoamine oxidase (result in words) [1]: potent inhibition; Uncoupling activity in yeast mitochondrial preparations (result in words) [2]: high uncoupling activity; IC50 [4, 8]: 300 µM; EC50 [5]: 2.3 µM; Uncoupling activity in rat liver mitochondrial preparations (result in words) [5]: high uncoupling activity
11 | CN=CNc1ccc(C)cc1C [BTS 27271, N-(2,4-dimethylphenyl)-N'-methyl formamidine, reference compound] | 100 | – | 0.2% | –
12 | Clc1ccc(C(c2ccc(Cl)cc2)C(Cl)(Cl)Cl)cc1 [DDT, reference compound] | – | – | 0.78% | LC50 ([6]; 24 h): > 20000 mg/L
13 | FC(F)(F)c1nncn1-c1ccccc1 [Example 1, 4-Phenyl-3-trifluoromethyl-1,2,4-triazole] | 0 | 2500 µM | 0.62% | –
14 | FC(F)(F)c1nncn1-c1ccc(Cl)cc1 [Example 3, 4-(4-chlorophenyl)-3-trifluoromethyl-1,2,4-triazole] | 2 | 2500 µM | 0.60% | –
15 | Cc1ccccc1-n1cnnc1C(F)(F)F [Example 4, 4-(2-methylphenyl)-3-trifluoromethyl-1,2,4-triazole] | 2.5 | – | 0.52% | –
16 | CC(C)(C)c1ccccc1-n1cnnc1C(F)(F)F [Example 5, 4-(2-t-butylphenyl)-3-trifluoromethyl-1,2,4-triazole] | 0 | 100 µM | 2.16% | IC50 ([2]; yeast mitochondria, read-out: Half-maximal effect on State 3 respiration by yeast mitochondria): 160 µM
17 | Cc1ccc(-n2cnnc2C(F)(F)F)c(C)c1 [Example 9, 4-(2,4-Dimethylphenyl)-3-trifluoromethyl-1,2,4-triazole] | – | – | 1.55% | –
18 | Cc1cc(Cl)ccc1-n1cnnc1C(F)(F)F [Example 10, 4-(4-Chloro-2-methylphenyl)-3-trifluoromethyl-1,2,4-triazole] | – | – | 0.87% | –
